US20240368203A1, “DEGRADATION OF (EGFR) BY CONJUGATION OF EGFR INHIBITORS WITH E3 LIGASE LIGAND AND METHODS OF USE” (BeiGene, Ltd., priority 2022, published 2024)

Key:
EGFR-Del19/T790M/C797S = assay: EGFR degradation HTRF assay in H1975-clone #28 cells; format: cell-based; conditions: H1975-clone #28 (Del19/T790M/C797S) cells, 16 h treatment; for DC50: IC50 (DC50), read-out: DC50(nM) H1975 # 28 DTC; for Dmax (%) H1975 # 28 DTC: maximum percentage of inhibition (degradation)
Experimental: (§1) H1975-clone #28(Del19/T790M/C797S) and H1975-clone #25(L858R/T790M/C797S). EGFR-Del19/T790M/C797S and EGFR-L858R/T790M/C797S were stably expressed in H1975 cell lines by lentivirus-mediated over-expression, respectively. The EGFR over-expressed cells then underwent knockout, in which the EGFR targeting sgRNA was designed to only target the endogenous EGFR copies and preserve the exogenous EGFR copies. Followed by knockout, the edited H1975 cells were seeded in 96 well plates at the concentration of […], cultured for about 2 weeks to allow single clones formation. The formed clones were screened by DNA sequencing and whole exon sequencing analysis for the desired edition.
(§2) H1975-clone #28, and H1975-clone #25 were finally confirmed as homozygous Del19/T790M/C797S EGFR, and L858R/T790M/C797S EGFR clones, respectively.
(§3) H1975-#25 and H1975-#28 cells are treated with compounds diluted in 0.2% DMSO cell culture medium on day 2, incubate for 16 h, 37° C., 5% CO2. the final concentration of compounds in all assay is start with 10 uM, 5-fold dilution, total 8 doses were included.
(§4) After 16 h treatment, add HTRF lysis buffer to each well; seal the plate and incubate 1 hour at room temperature on a plate shaker; Once the cells are lysed, 16 μL of cell lysate are transferred to a PE 384-well HTRF detection plate; 4 μL of pre-mixed HTRF antibodies are added to each well; Cover the plate with a plate sealer, spin 1000 rpm for 1 min, Incubate overnight at room temperature; Read on BMG PheraStar with HTRF protocol (337 nm-665 nm-620 nm).
(§5) The inhibition (degradation) percentage of the compound was calculated by the following equation:
(§6) Inhibition percentage of Compound=100−100×(Signal−low control)/(High control−low control),
(§7) The IC50 (DC50) value of a compound can be obtained by fitting the following equation
(§8) Wherein, X and Y are known values, and IC50, Hillslope, Top and Bottom are the parameters obtained by fitting with software. Y is the inhibition percentage (calculated from the equation), X is the concentration of the compound; IC50 is the concentration of the compound when the 50% inhibition is reached. The smaller the IC50 value is, the stronger the inhibitory ability of the compound is. Vice versa, the higher the IC50 value is, the weaker the ability the inhibitory ability of the compound is; Hillslope represents the slope of the fitted curve, generally around 1 *; Bottom represents the minimum value of the curve obtained by data fitting, which is generally 0%±20%; Top represents the maximum value of the curve obtained by data fitting, which is generally 100%±20%. The experimental data were fitted by calculating and analyzing with Dotmatics data analysis software.

EGFR-L858R/T790M/C797S = target: T1, EGFR-L858R/T790M/C797S (Homo sapiens, UniProt P00533, C797S/L858R/T790M); assay: EGFR degradation HTRF assay in H1975-clone #25 cells; format: cell-based; conditions: 16 h treatment; for DC50: H1975-clone #25 (L858R/T790M/C797S) cells, IC50 (DC50), read-out: DC50(nM) H1975 # 25-LTC; for Dmax: NCI-H1975, H1975-clone #25 (L858R/T790M/C797S) cells, maximum percentage of inhibition (degradation), read-out: Dmax (%) H1975 # 25-LTC
T1 construct: expressed in transfected cells; host or cells: H1975-clone #25 (lentiviral over-expression, endogenous EGFR knocked out)
T1 sequence (P00533 25-1210 T790M/C797S/L858R): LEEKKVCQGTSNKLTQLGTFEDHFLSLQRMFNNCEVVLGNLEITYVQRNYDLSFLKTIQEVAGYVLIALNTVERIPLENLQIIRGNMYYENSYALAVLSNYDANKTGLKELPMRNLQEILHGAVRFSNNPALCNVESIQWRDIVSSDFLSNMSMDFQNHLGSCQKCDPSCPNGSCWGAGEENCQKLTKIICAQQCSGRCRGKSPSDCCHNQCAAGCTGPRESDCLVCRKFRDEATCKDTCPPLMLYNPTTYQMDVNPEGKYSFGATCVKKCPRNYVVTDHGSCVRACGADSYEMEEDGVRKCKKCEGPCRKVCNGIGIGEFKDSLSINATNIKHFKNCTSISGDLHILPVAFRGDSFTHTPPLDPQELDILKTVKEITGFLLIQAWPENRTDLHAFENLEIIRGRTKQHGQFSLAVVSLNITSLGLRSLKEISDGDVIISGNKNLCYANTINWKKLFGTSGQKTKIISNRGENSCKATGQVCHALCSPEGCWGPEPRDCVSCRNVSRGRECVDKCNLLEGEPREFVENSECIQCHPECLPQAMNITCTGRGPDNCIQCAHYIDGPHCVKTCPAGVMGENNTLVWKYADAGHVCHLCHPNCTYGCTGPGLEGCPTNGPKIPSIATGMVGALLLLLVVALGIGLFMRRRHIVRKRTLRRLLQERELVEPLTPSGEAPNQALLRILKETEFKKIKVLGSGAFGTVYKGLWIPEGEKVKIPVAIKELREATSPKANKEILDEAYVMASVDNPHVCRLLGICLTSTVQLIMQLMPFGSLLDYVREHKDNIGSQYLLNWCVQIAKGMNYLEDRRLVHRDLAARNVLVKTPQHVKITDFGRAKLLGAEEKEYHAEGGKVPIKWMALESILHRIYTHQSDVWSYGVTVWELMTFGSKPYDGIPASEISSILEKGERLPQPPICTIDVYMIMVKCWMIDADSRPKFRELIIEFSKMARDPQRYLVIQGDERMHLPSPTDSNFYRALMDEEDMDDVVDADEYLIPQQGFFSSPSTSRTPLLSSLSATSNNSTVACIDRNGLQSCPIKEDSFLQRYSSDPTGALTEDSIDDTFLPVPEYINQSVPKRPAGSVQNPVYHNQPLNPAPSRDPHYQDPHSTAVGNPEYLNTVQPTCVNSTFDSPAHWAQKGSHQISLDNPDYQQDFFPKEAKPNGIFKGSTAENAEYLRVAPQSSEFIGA
Experimental: as §1, §2, §3, §4, §5, §6, §7, §8

| Structure (SMILES) | DC50 (EGFR-Del19/T790M/C797S) | DC50 (EGFR-L858R/T790M/C797S) | Dmax (EGFR-L858R/T790M/C797S) | Dmax (%) H1975 # 28 DTC (EGFR-Del19/T790M/C797S) |
| --- | --- | --- | --- | --- |
| CCc1ncc2c(P(C)(C)=O)c(Nc3nc(Nc4cc(CC)c(N5CCC(N6CC7(CCN(c8cccc9c8n(C)c(=O)n9C8CCC(=O)NC8=O)CC7)C6)CC5)cc4OC)ncc3Br)ccc2n1 (stereo not shown) [Example 31, 3-(4-(2-(1-(4-((5-bromo-4-((5-(dimethylphosphoryl)-2-ethylquinazolin-6-yl)amino)pyrimidin-2-yl)amino)-2-ethyl-5-methoxyphenyl)piperidin-4-yl)-2,7-diazaspiro[3.5]nonan-7-yl)-3-methyl-2-oxo-2,3-dihydro-1H-benzol[d]imidazol-1-yl)piperidine-2,6-dione] | 0.8 nM | 0.6 nM | 86% | 80% |
| CCc1cc(Nc2ncc(Br)c(Nc3ccc4nc(C)c(F)cc4c3P(C)(C)=O)n2)c(OC)cc1N1CCC2(CCN(CCN(C)c3cccc4c3CN(C3CCC(=O)NC3=O)C4=O)CC2)CC1 (stereo not shown) [Example 34, 3-(4-((2-(9-(4-((5-bromo-4-((5-(dimethylphosphoryl)-3-fluoro-2-methylquinolin-6-yl)amino)pyrimidin-2-yl)amino)-2-ethyl-5-methoxyphenyl)-3,9-diazaspiro[5.5]undecan-3-yl)ethyl)(methyl)amino)-1-oxoisoindolin-2-yl)piperidine-2,6-dione] | 2.5 nM | 2.8 nM | 89% | 80% |
| CCc1ncc2c(P(C)(C)=O)c(Nc3nc(Nc4cc(CC)c(N5CCC(N6CC(N7CCC(c8cc(F)c([C@H]9CCC(=O)NC9=O)c(F)c8)CC7)C6)CC5)cc4OC)ncc3Br)ccc2n1 [Example 13, (R)-3-(4-(1-(1-(1-(4-((5-bromo-4-((5-(dimethylphosphoryl)-2-ethylquinazolin-6-yl)amino)pyrimidin-2-yl)amino)-2-ethyl-5-methoxyphenyl)piperidin-4-yl)azetidin-3-yl)piperidin-4-yl)-2,6-difluorophenyl)piperidine-2,6-dione] | 0.7 nM | 1.8 nM | 94% | 92% |
| CCc1cc(Nc2ncc(Br)c(Nc3ccc4nc(C)c(F)cc4c3P(C)(C)=O)n2)c(OC)cc1N1CCC(N2CCN(C(=O)C3CN(c4ccc(F)c5c4n(C)c(=O)n5[C@H]4CCC(=O)NC4=O)C3)CC2)CC1 [Example 24, (S)-3-(4-(3-(4-(1-(4-((5-bromo-4-((5-(dimethylphosphoryl)-3-fluoro-2-methylquinolin-6-yl)amino)pyrimidin-2-yl)amino)-2-ethyl-5-methoxyphenyl)piperidin-4-yl)piperazine-1-carbonyl)azetidin-1-yl)-7-fluoro-3-methyl-2-oxo-2,3-dihydro-1H-benzo[d]imidazol-1-yl)piperidine-2,6-dione] | 0.6 nM | 1.4 nM | 88% | 87% |
| CCc1ncc2c(P(C)(C)=O)c(Nc3nc(Nc4cc(CC)c(N5CCC(N6CCN(C7CN(c8cc(F)c([C@H]9CCC(=O)NC9=O)c(F)c8)C7)CC6)CC5)cc4OC)ncc3Br)ccc2n1 (single isomer, unassigned) [Example 7] | 2.7 nM | 2.9 nM | 76% | 86% |

Second part, led by results:

| DC50 (EGFR-Del19/T790M/C797S) | DC50 (EGFR-L858R/T790M/C797S) | Dmax (EGFR-L858R/T790M/C797S) | Structure (SMILES) | Dmax (%) H1975 # 28 DTC (EGFR-Del19/T790M/C797S) |
| --- | --- | --- | --- | --- |
| 1.5 nM | 2.5 nM | 84% | CCc1ncc2c(P(C)(C)=O)c(Nc3nc(Nc4cc(CC)c(N5CCC(N6CCC7(CCN(c8cc(F)c([C@H]9CCC(=O)NC9=O)c(F)c8)CC7)CC6)CC5)cc4OC)ncc3Br)ccc2n1 (single isomer, unassigned) [Example 4] | 87% |
| 2.9 nM | 1.4 nM | 92% | CCc1ncc2c(P(C)(C)=O)c(Nc3nc(Nc4cc(CC)c(N5CCC(N6CC7(CCN(c8cc(F)c([C@H]9CCC(=O)NC9=O)c(F)c8)CC7)C6)CC5)cc4OC)ncc3Br)ccc2n1 (single isomer, unassigned) [Example 20] | 90% |
